From patent US20240181049A1, “HARNESSING THE POWER OF MICROBIOTA AND METABOLITES FOR THE TREATMENT OF CANCER” (UTI LIMITED PARTNERSHIP, priority 2019, published 2024)

Assays:
[1] = test system: MC38 tumor cells; test: MC38 tumor cell viability in vitro; type: cell-based; conditions: direct exposure in vitro, 72 hours
Protocol: FIG. 17A-17B. […] (a) MC38 tumor cells were treated with the indicated doses of inosine in vitro for 72 hours. Cell death and survival was assessed through flow cytometry. (b) MC38 tumor cells expressing full length ovalbumin (MC38-OVA) were treated with the indicated doses of inosine in vitro for 72 hours. In parallel, OVA-specific naïve CD4 and CD8 T cells from spleens of OT-II and OT-I mice, respectively, were activated with anti-CD3/anti-CD28 beads and rmIL-2 (20 IU/ml) for 72 hours. Inosine was then washed away from conditioned MC38-OVA cells and fresh medium together with activated T cells were added (100,000 MC38-OVA cells+25,000 CD4 cells+25,000 CD8 cells). 72 hours later, cell death and survival of MC38-OVA cells was assessed through flow cytometry. Grey and black dash-dotted lines indicate MC38-OVA cell viability and death when co-cultured with naïve OVA-specific CD4 and CD8 T cells. Data are mean±SEM and pooled from two individual experiments. n=6 biological replicates/condition. #, & P<0.05, **, P<0.01; (**=0.0001 vs 10 mM, #0.001 vs 10 mM and & 1 vs 10 mM)

[2] = test system: MC38; test: MC38 tumors in gnotobiotic Oligo-MM12 mice, inosine + anti-CTLA-4; type: in vivo
Protocol: FIG. 35A-35H. Inosine and live B. pseudolongum improve anti-CTLA-4 therapy efficacy in moderately diverse and complex microbiomes. A) Schematic overview of experimental setup to assess the effect of inosine on anti-tumor immunity in gnotobiotic mice (Oligo-MM12) stably colonized with 12 bacterial species. Upon palpable tumors, Oligo-MM12 colonized mice were treated with 100 μg anti-CTLA-4 i.p. or Isotype antibody (5 times every 72 hours). In addition, inosine (300 mg/KG/BW) or PBS was given daily orally through gavage. (B) Pictures of tumors and (C) tumor weight are shown at day 20. scale bars: 1 cm. (D) Quantification of intratumoral IFN-γ+ cells amongst CD8+ or CD4+ T cells are shown. (E) Schematic overview of experimental setup to assess the effect of inosine and B. pseudolongum on anti-tumor immunity in SPF mice. Following MC38 injection some mice received antibiotics (ABX), specifically Ampicillin 1 mg/ml, Colistin 1 mg/ml and Streptomycin 5 mg/ml for 7 days in the drinking water. Upon palpable tumors, antibiotics were removed and 100 μg anti-CTLA-4 (5 times every 72 hours) started. Mice concomitantly received either PBS, inosine (300 mg/KG/BW daily), B. pseudolongum or heat inactivated (H.i.) B. pseudolongum orally through gavage (5 times every 72 hours). (F) Pictures of tumors and (G) tumor weight are shown at day 20. scale bars: 1 cm. (H) Quantification of intratumoral IFN-γ+ cells amongst CD8+ or CD4+ cells are shown. Data are mean+/−SEM and (A-H) n=7 mice/group. P<0.05; **, P<0.01, ***, P<0.001.

[3] = biological target: A2AR (Homo sapiens, UniProt P29274); conditions: compared to adenosine; cited from earlier work
Sequence of A2AR (P29274 whole entry): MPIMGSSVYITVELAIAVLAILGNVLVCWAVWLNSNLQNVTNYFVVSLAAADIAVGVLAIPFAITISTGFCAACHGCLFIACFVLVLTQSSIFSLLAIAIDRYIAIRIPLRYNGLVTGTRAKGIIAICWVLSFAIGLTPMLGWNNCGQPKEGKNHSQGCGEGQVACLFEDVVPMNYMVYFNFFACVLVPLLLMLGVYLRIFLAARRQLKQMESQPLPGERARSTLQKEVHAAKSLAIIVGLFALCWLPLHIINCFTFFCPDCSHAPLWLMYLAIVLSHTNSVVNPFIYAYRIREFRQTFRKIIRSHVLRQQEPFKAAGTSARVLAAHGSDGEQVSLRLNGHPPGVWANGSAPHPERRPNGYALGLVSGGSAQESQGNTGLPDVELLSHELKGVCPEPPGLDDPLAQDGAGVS

## OC[C@H]1O[C@@H](n2cnc3c(O)ncnc32)[C@H](O)[C@@H]1O [inosine]
[1]
  tumor cell viability: did not exert any effects on tumor cell viability
[1]; listed as Inosine
  tumor cell viability: does not directly impact tumor cell viability
[2]
  intra-tumoral IFN-γ+CD8+ and IFN-γ+CD4+ T cells: increased
  tumor size: reduced tumor size
[2]; inosine 300 mg/KG/BW daily orally
  anti-tumor effects of anti-CTLA-4: able to promote the anti-tumor effects of anti-CTLA-4
[3]
  A2AR-dependent signaling bias, preference for ERK1/2 phosphorylation: 3.3 fold
